The text below walks through data of US9095631B2, “Tetrahydroisoquinoline compounds for use in the diagnosis and treatment of neurodegenerative diseases” (UNIVERSITA DEGLI STUDI DI BARI “ALDO MORO”, priority 2011, dated 2015).

For one data set, the target named is T1, MRP1 (Homo sapiens, UniProt P33527).
T1 construct: expressed in transfected cells; host or cells: MDCK
The data set can be described thus: Inhibition of the transport of Calcein-AM on MDCK cell lines overexpressing MDR proteins (MRP1). The format is cell-based. The conditions noted are these: for EC50: Calcein-AM transport inhibition, MDCK cells overexpressing MRP1. The procedure:
(§1) 3) Inhibition of the Transport of Calceina-AM and of Rhodamine-123 on MDCK Cell Lines Overexpressing MDR Proteins.
(§2) In this assay the inhibition of the transport of a BCRP fluorescent substrate, Rhodamina-123, or of a P-gp or MRP1 profluorescent substrate, Calcein-AM, is determined.
(§3) Calcein-AM, entering the cell membrane is […] by citosolic esterase to fluorescent calcein (that is not a P-gp substrate) leading to a fluorescent signal. Therefore, the inhibition of the efflux pump will be directly correlated to the fluorescent signal due to the cell accumulation of Calcein-AM (see Feng, B., et al., 2008; Drug Metab. Dispos. 36, 268-275).

Data set [1] deals with T2, P-gp (Homo sapiens, UniProt P08183). As to the kind of experiment: Apparent Permeability Determination (Papp) on Caco-2 cells overexpressing P-gp. It counts as in vitro ADME. To be noted: ratio Papp-BA/Papp-AB, 18-20 transported by P-gp, 2-18 modulator, 1-2 not transported. The procedure:
1) Apparent Permeability Determination (Papp)
This assay is carried out on colon adenocarcinoma cell line (Caco-2) overexpressing P-gp, a cell model usually employed for the permeability study. In this experiment Apparent Permeability (Papp) is determined both in basolateral/apical direction (Papp-BA) and in apical/basolateral direction (Papp-AB). The BA/AB ratio allow to discriminate if a ligand is transported by P-gp (BA/AB ratio between 18 and 20), or not (BA/AB ratio between 1 and 2). For BA/AB ratio between 2 and 18 compounds can be classified as modulators (see Polli, J. V et al., 2001, J. Pharmacol. Exp. Ther. 299, 620-628).
A general note: Caco-2 cells form a polarised layer with tight junctions and transporters.

Data set [2] concerns the target T2, P-gp. The data set can be described thus: Inhibition of the transport of Calcein-AM on MDCK cell lines overexpressing MDR proteins (P-gp). The format is cell-based. More on the design: expressed in transfected cells; host or cells: MDCK. To be noted: MDCK cells overexpressing P-gp. The procedure:
as §1, §2, §3

T2 sequence (P08183 whole entry): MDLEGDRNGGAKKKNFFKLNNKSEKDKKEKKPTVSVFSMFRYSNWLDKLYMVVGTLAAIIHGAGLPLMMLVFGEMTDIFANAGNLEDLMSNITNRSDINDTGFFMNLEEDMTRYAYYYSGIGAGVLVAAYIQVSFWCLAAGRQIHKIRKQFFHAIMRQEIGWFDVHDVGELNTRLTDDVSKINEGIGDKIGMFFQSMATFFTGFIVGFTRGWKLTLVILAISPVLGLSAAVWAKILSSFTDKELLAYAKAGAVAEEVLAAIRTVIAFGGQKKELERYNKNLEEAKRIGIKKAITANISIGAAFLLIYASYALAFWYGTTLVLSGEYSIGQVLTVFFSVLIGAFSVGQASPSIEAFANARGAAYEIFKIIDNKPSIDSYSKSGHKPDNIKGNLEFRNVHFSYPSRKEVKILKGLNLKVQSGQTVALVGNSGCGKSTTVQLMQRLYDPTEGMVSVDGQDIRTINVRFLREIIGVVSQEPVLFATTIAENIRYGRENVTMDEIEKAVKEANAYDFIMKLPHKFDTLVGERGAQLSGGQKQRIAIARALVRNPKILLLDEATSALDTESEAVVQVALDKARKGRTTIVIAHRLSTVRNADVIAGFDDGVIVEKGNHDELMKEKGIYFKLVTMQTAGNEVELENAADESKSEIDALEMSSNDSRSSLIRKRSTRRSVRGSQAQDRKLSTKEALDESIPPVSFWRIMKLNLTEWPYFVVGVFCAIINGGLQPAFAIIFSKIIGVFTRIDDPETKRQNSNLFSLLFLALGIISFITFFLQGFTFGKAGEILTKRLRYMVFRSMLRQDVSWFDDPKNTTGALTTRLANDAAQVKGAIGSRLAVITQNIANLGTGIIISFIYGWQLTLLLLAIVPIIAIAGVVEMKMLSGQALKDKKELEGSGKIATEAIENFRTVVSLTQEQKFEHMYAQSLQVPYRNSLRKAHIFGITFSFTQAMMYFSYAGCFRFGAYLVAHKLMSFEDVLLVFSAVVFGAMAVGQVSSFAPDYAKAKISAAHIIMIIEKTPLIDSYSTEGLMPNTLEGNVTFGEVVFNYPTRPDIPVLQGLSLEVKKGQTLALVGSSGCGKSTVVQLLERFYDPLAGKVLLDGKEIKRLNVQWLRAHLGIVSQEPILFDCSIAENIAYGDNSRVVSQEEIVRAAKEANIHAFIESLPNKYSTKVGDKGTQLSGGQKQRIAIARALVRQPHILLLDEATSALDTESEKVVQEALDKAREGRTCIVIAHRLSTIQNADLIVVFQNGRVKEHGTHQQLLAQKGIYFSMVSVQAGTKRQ
T1 sequence (P33527 whole entry): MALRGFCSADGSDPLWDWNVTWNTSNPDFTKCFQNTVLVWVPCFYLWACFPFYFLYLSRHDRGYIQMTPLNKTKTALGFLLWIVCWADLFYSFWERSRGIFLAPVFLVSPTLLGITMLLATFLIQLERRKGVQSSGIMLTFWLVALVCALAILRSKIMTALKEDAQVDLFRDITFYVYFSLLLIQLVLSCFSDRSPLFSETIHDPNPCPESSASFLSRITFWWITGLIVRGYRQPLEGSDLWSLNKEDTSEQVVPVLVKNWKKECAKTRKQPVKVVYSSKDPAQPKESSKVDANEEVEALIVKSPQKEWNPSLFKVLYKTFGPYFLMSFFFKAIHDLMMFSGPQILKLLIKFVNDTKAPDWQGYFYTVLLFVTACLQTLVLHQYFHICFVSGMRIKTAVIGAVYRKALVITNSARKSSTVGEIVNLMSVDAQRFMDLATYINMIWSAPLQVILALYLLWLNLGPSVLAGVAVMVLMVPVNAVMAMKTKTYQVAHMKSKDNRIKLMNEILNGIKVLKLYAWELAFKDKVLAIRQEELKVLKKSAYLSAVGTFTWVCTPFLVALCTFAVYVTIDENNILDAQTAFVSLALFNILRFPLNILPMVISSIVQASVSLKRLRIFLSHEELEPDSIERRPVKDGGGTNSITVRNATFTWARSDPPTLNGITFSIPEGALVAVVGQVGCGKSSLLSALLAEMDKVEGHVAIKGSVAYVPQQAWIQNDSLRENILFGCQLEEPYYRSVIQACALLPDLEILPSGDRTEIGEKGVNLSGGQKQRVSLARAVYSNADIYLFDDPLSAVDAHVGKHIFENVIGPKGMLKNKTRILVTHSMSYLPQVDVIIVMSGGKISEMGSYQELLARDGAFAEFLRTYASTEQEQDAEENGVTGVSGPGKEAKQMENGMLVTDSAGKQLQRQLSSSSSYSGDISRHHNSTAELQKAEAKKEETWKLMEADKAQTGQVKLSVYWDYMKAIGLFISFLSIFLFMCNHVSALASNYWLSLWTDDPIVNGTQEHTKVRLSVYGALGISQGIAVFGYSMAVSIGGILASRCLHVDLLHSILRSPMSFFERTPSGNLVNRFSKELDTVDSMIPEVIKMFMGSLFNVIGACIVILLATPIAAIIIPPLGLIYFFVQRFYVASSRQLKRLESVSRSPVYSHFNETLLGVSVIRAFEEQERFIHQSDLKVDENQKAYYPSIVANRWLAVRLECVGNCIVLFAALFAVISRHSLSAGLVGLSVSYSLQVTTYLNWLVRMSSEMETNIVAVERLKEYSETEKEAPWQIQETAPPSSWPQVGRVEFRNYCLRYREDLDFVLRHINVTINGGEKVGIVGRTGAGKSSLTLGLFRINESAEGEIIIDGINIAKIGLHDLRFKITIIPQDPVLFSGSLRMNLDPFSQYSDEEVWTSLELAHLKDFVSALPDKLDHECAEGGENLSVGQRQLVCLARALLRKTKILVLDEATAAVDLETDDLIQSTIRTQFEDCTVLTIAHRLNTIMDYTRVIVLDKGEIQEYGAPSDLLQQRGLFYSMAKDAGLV

`COc1cc2c(cc1OC)CN(Cc1csc(-c3ccc4cc(Br)ccc4c3)n1)CC2` [R2 = H, R1 = Br, X = S, (2-((2-(2-Bromonaftalen-6-il)thiazol-4-il)metil)-1,2,3,4-tetraidro-6,7-dimetossiisochinolina]: the EC50 on MRP1 was more than 100 µM; at P-gp [2] it was 3.7 µM. In addition, the efflux ratio on P-gp [1] came out at 6.
Taken in the same sequence, the figures for `COc1ccc2cc(-c3nc(CN4CCc5cc(OC)c(OC)cc5C4)cs3)ccc2c1` [R2 = H, R1 = OCH3, X = S, 1,2,3,4-tetrahydro-6,7-dimethoxy-2-((2-(2-methoxynaphthalen-6-yl)thiazol-4-yl)methyl)isoquinoline] were more than 100 µM, 1 µM and 6.
For the compound `COc1cc2c(cc1OC)CN(Cc1coc(-c3ccc4cc(F)ccc4c3)n1)CC2` [R2 = H, R1 = F, X = O, 2-((2-(2-fluoronaphthalen-6-yl)oxazol-4-yl)methyl)-1,2,3,4-tetrahydro-6,7-dimethoxyisoquinoline], the EC50 is 31.8 µM at MRP1 and 5.2 µM at P-gp [2]. In addition, on P-gp [1], the efflux ratio came out at 0.8.
`COc1cc2c(cc1OC)CN(Cc1coc(-c3ccc4ccccc4c3)n1)CC2` [R2 = H, R1 = H, X = O, 1,2,3,4-tetrahydro-6,7-dimethoxy-2-((2-(naphthalen-6-yl)oxazol-4-yl)methyl)isoquinoline]: the EC50 on MRP1 was 33.2 µM; at P-gp [2], 2.7 µM. In addition, the efflux ratio on P-gp [1] came out at 0.4.
As to `COc1cc2c(cc1OC)CN(Cc1coc(-c3ccc4cc(O)ccc4c3)n1)CC2` [R2 = H, R1 = OH, X = O, 2-((2-(2-hydroxynaphthalen-6-yl)oxazol-4-yl)methyl)-1,2,3,4-tetrahydro-6,7-dimethoxyisoquinoline], on MRP1, the “activity towards MRP1 (in words)” value is “inactive” and the EC50 was more than 100 µM. Also, the efflux ratio at P-gp [1] turned out to be 1.6. Further, on P-gp [2], the EC50 is 2.8 µM.

What is called EC50 is the concentration at which the effect is half-maximal. As a reminder, the efflux ratio is the permeability from basolateral to apical divided by that in the opposite direction, in the common usage.
